Source: patent US6896895B2, “Carotenoid esters, carotenoid-enriched feeds, and methods of pigmenting foods and foodstuffs” (DSM IP Assets B.V., priority 2000, dated 2005)

Experiments:
[1] = tested on: skin and shanks of broilers; assay: Reflectance colorimetry and visual classification of skin and shanks of broilers; assay type: in vivo, broiler chickens (Ross 308, Ross 508); design: key to Shanks Visual Classification / Skin Visual Classification: −; (+); +; ++ = good color; o = orange; conditions: for Shanks Chroma C*ab % of Controls / Shanks Color Hue h*ab % of Controls / Skin Chroma C*ab % of Controls / Skin Color Hue h*ab % of Controls / Shanks Chroma C*ab Value / Shanks Color Hue h*ab Value / Shanks Visual Classification / Skin Chroma C*ab Value / Skin Color Hue h*ab Value / Skin Visual Classification: dry carcasses; for chroma C*a*b* values in the skin and in the shanks / color hue h*a*b* in the skin and in the shanks / effectiveness in terms of concentration in the skin, and color intensity (chroma C*a*b*) in the skin and shanks: versus the control
In short: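 Ross broilers were fed a low-carotenoid basal diet (<2 mg xanthophylls/kg), then received pigment-supplemented diet for three weeks and were slaughtered on day 44. Back-skin colour (mean of three points) and shank colour (single reading) were measured by Minolta chromameter (D65, 0°) and reported as CIE L*a*b*, h* and C*, averaged over ten birds (5 male, 5 female).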

[2] = Carotenoid ester content and deposition rate in egg yolk of laying hens (HPLC); assay type: in vivo, laying hens (ISA Brown); design: Deposition Rate Value: unit not given here; conditions: for Deposition Rate Target Values % of Controls / Ethyl β-apo-8′-carotenoate Equivalents % of Controls / Deposition Rate % of Controls / Deposition Rate Target Values / Ethyl β-apo-8′-carotenoate Equivalents / Deposition Rate Value: egg yolk; for Deposition Rate % of Controls / Deposition Rate Value: Table 9; for concentration in the egg yolk: versus the control
In short: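 Hens were first depleted for at least 28 days on a low-carotenoid basal diet (<2 mg total xanthophylls/kg, also the control diet), then fed mash supplemented with the pigments ad libitum for three weeks. Pooled homogenised yolk was extracted with ethanol/n-hexane and analysed by HPLC, calibrated with all-E ethyl β-apo-8′-carotenoate. Response factors were adjusted by molecular weight, and Z-isomers were corrected by a factor of 1.4.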

SMILES | Shanks Chroma C*ab % of Controls ([1]; average over doses, Table 5) | Shanks Color Hue h*ab % of Controls ([1]; average over doses, Table 5) | Skin Chroma C*ab % of Controls ([1]; average over doses, Table 5) | Skin Color Hue h*ab % of Controls ([1]; average over doses, Table 5) | Shanks Chroma C*ab % of Controls ([1]; trial MC-24/99, 20 mg/kg feed) | Shanks Chroma C*ab Value ([1]; trial MC-24/99, 20 mg/kg feed) | Shanks Color Hue h*ab % of Controls ([1]; trial MC-24/99, 20 mg/kg feed) | Shanks Color Hue h*ab Value ([1]; trial MC-24/99, 20 mg/kg feed) | Shanks Visual Classification ([1]; trial MC-24/99, 20 mg/kg feed) | Skin Chroma C*ab % of Controls ([1]; trial MC-24/99, 20 mg/kg feed) | Skin Chroma C*ab Value ([1]; trial MC-24/99, 20 mg/kg feed) | Skin Color Hue h*ab % of Controls ([1]; trial MC-24/99, 20 mg/kg feed) | Skin Color Hue h*ab Value ([1]; trial MC-24/99, 20 mg/kg feed) | Skin Visual Classification ([1]; trial MC-24/99, 20 mg/kg feed) | Shanks Chroma C*ab % of Controls ([1]; trial MC-24/99, 30 mg/kg feed) | Shanks Chroma C*ab Value ([1]; trial MC-24/99, 30 mg/kg feed) | Shanks Color Hue h*ab % of Controls ([1]; trial MC-24/99, 30 mg/kg feed) | Shanks Color Hue h*ab Value ([1]; trial MC-24/99, 30 mg/kg feed) | Shanks Visual Classification ([1]; trial MC-24/99, 30 mg/kg feed) | Skin Chroma C*ab % of Controls ([1]; trial MC-24/99, 30 mg/kg feed) | further results
CC(C=CC=C(C)C=CC1=C(C)CCCC1(C)C)=CC=CC=C(C)C=CC=C(C)C(=O)OC(C)(C)C [compound (18), tert. butyl beta-apo-8′-carotenoate] | 113% | 100% | 115% | 105% | 114% | 63 | 100% | 84 | + | 116% | 38 | 107% | 81 | + | 111% | 70 | 99% | 82 | ++ | 113% | Skin Chroma C*ab Value ([1]; trial MC-24/99, 30 mg/kg feed): 41; Skin Color Hue h*ab % of Controls ([1]; trial MC-24/99, 30 mg/kg feed): 102%; Skin Color Hue h*ab Value ([1]; trial MC-24/99, 30 mg/kg feed): 80; Skin Visual Classification ([1]; trial MC-24/99, 30 mg/kg feed): ++; chroma C*a*b* values in the skin and in the shanks [1]: substantially enhanced; color hue h*a*b* in the skin and in the shanks [1]: not significantly changed; effectiveness in terms of concentration in the skin, and color intensity (chroma C*a*b*) in the skin and shanks [1]: significantly more effective; Deposition Rate Target Values % of Controls ([2]; average over doses, Table 7): 119%; Ethyl β-apo-8′-carotenoate Equivalents % of Controls ([2]; average over doses, Table 7): 106%; Deposition Rate % of Controls ([2]; average over doses): 119%; Deposition Rate Target Values ([2]; trial H-25/99, 5.0 mg/kg feed): 60.7%; Deposition Rate Target Values % of Controls ([2]; trial H-25/99, 5.0 mg/kg feed): 119%; Ethyl β-apo-8′-carotenoate Equivalents ([2]; trial H-25/99, 5.0 mg/kg feed): 16.6 mg/kg; Ethyl β-apo-8′-carotenoate Equivalents % of Controls ([2]; trial H-25/99, 5.0 mg/kg feed): 106%; Deposition Rate % of Controls ([2]; trial H-25/99, 5.0 mg/kg feed): 119%; Deposition Rate Value ([2]; trial H-25/99, 5.0 mg/kg feed): 61; concentration in the egg yolk [2]: in the range of the control
CCCC(C)OC(=O)C(C)=CC=CC(C)=CC=CC=C(C)C=CC=C(C)C=CC1=C(C)CCCC1(C)C (stereo not drawn) [compound (19), 2-pentyl beta-apo-8′-carotenoate] | 105% | 98% | 106% | 97% | 108% | 60 | 98% | 82 | + | 106% | 34 | 96% | 73 | + | 102% | 65 | 98% | 82 | ++ | 105% | Skin Chroma C*ab Value ([1]; trial MC-24/99, 30 mg/kg feed): 38; Skin Color Hue h*ab % of Controls ([1]; trial MC-24/99, 30 mg/kg feed): 97%; Skin Color Hue h*ab Value ([1]; trial MC-24/99, 30 mg/kg feed): 76; chroma C*a*b* values in the skin and in the shanks [1]: substantially enhanced; color hue h*a*b* in the skin and in the shanks [1]: not significantly changed; effectiveness in terms of concentration in the skin, and color intensity (chroma C*a*b*) in the skin and shanks [1]: significantly more effective; Deposition Rate Target Values % of Controls ([2]; average over doses, Table 7): 101%; Ethyl β-apo-8′-carotenoate Equivalents % of Controls ([2]; average over doses, Table 7): 94%; Deposition Rate % of Controls ([2]; average over doses): 101%; Deposition Rate Target Values ([2]; trial H-25/99, 5.0 mg/kg feed): 51.2%; Deposition Rate Target Values % of Controls ([2]; trial H-25/99, 5.0 mg/kg feed): 101%; Ethyl β-apo-8′-carotenoate Equivalents ([2]; trial H-25/99, 5.0 mg/kg feed): 14.6 mg/kg; Ethyl β-apo-8′-carotenoate Equivalents % of Controls ([2]; trial H-25/99, 5.0 mg/kg feed): 94%; Deposition Rate % of Controls ([2]; trial H-25/99, 5.0 mg/kg feed): 101%; Deposition Rate Value ([2]; trial H-25/99, 5.0 mg/kg feed): 51; concentration in the egg yolk [2]: in the range of the control
